Data on one compound can be found in patent publication US20140051678A1, “INHIBITORS OF THE ACTIVITY OF COMPLEX III OF THE MITOCHONDRIAL ELECTRON TRANSPORT CHAIN AND USE THEREOF FOR TREATING DISEASES” (STEMERGIE BIOTECHNOLOGY SA, priority 2010, published 2014).

Where two headings read alike, the source gives them in different places.

In general, AC50 refers to the concentration giving half of the maximal activity seen.

Series [1] relates to glioma-initiating cells (GICs). Put plainly: Short term dose response on gliomaspheres, cell death by FACS after trypan blue incorporation. Type of series: cell-based, human. Conditions: 50 μM, 48 hrs. On the procedure:
Short term dose response of the compound of Example 4 was performed according to the method as described in the patent application PCT no PCTIB2010/052237 (WO 2010/134039).
Briefly, gliomaspheres were dissociated, counted and plated at 10 cells/μl in DMEM-F12, 2% B27, 1% peni/strep, EGF and bFGF at 1 ng/ml. Cells were then treated with various amount of the compound for 48 hrs and cell death was analysed by FACS after incorporation of trypan blue (1/1000).
On the technique in general: In flow cytometry, cells or beads pass a laser one at a time.

Series [2] relates to HepG2 cells. Description: MTT cytotoxicity / mitochondrial toxicity assay, glucose vs galactose medium, HepG2. Type of series: cell-based, Human. The note with it: for AC50: Homo sapiens. Here is the method: (§1) Human hepatocellular liver carcinoma cells (HepG2) or Human glioblastoma-astrocytoma, epithelial-like cells (U-87 MG) were plated on 96-well tissue culture treated polystyrene plates at 0.5×10^4 cells in 100 μL of Dulbecco's modified Eagle's medium containing either galactose or glucose supplemented with 10% foetal bovine serum and antibiotics per well. After 24 hr the cells are dosed with test compound at a range of concentrations and incubated for 72 nr. One hour prior to the end of the incubation period, the cells are loaded with MTT [yellow; 3-(4,5-dimethyl-2-thiazolyl)-2,5-diphenyl-2H-tetrazolium bromide], the plates are dried and re-solubilised using DMSO. The plates are then scanned using SpectraFluor Plus (TECAN).
(§2) To measure the relative sensitivity of HepG2 or U-87 MG cells grown in medium containing either galactose or glucose to the test compound.
(§3) Cytotoxicity was assessed using MTT. The assay provides a measurement of mitochondrial dehydrogenase activity and cell loss.
(§4) Cell Loss: A decrease can indicate a loss of cells indicating toxicity due to necrosis, apoptosis or a reduction in cellular proliferation.
(§5) Mitochondrial Activity: A decrease can also indicate an effect on mitochondrial function as mitochondrial dehydrogenases reduce the MTT [yellow; 3-(4,5-dimethyl-2-thiazolyl)-2,5-diphenyl-2H-tetrazolium bromide] to formazan. The formazan is detected in this assay (see assay protocol for details).
(§6) The AC50 is calculated from a four point logistic curve fit to determine percent survival of each test agent and control compound. The fold change is calculated from AC50 curve fit data by comparison with cells grown with glucose or galactose, A greater than 5-fold response in the presence of galactose indicates the compound is considered to be a mitochondrial toxicant.

The subject of series [3] is U-87 MG cells. Put plainly: MTT cytotoxicity / mitochondrial toxicity assay, glucose vs galactose medium, U-87 MG. The note with it: for AC50: Homo sapiens. The series is classed as cell-based, Human. Here is the method: as §1, §2, §3, §4, §5, §6

Take `O=CNc1cccc(C(=O)NC2CCCCCCCC2)c1O` [Example 4, N-cyclononyl-3-formamido-2-hydroxybenzamide]: the “fold increase cell death” value in series [1] is no less than 1.2 fold. Also, the “Fold Change (AC50 glucose vs galactose)” value in series [2] (HepG2, 72 h) was 9.92; in series [3] (72 h), greater than 70.1. Also, the “Cell Loss - Galactose MEC” value in series [2] (HepG2, galactose medium, 72 h, MTT) stood at 4 µM; in series [3] (galactose medium, 72 h, MTT) it was 1 µM. In addition, the “Cell Loss - Glucose MEC” value in series [2] (HepG2, glucose medium, 72 h, MTT) was 10 µM; in series [3] (glucose medium, 72 h, MTT), greater than 100 µM. Further, the “Mitochondrial Toxicant” value in series [2] (HepG2, greater than 5-fold response in galactose = mitochondrial toxicant) is “Yes”; in series [3] (greater than 5-fold response in galactose = mitochondrial toxicant), “Yes”. The AC50 in series [2] (HepG2, galactose medium, 72 h, MTT, read-out: Cell Loss - Galactose AC50) was 2400 nM; in series [2] (HepG2, glucose medium, 72 h, MTT, read-out: Cell Loss - Glucose AC50) it was 23800 nM; in series [3] (galactose medium, 72 h, MTT, read-out: Cell Loss - Galactose AC50), 1410 nM; in series [3] (glucose medium, 72 h, MTT, read-out: Cell Loss - Glucose AC50), greater than 100000 nM.
